Test results published in EP3928779A1 (Chugai Seiyaku Kabushiki Kaisha, priority 2014, dated 2016).

How the values were obtained:
[1] = test system: rat small-intestinal brush border membrane vesicles; assay: Inhibitory effect on 33PO4 uptake into rat small-intestinal brush border membrane vesicles (rapid filtration method); type: biochemical; details: 33PO4 uptake into rat small-intestinal BBMVs; test compound 1 µM; reacted for 60 seconds
Method in brief: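 Uptake of ^33PO4 was measured by rapid filtration and liquid scintillation counting of filter-retained vesicles, after quenching with ice-cold 110 mM NaCl/1 mM KH2PO4/10 mM HEPES pH 7.5. Vesicles were brush border membranes from the upper small intestine of female Wistar rats aged 4–5 weeks.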

[2] = test system: adenine-induced renal failure rat; assay: Suppressive effect on rise in serum phosphorus concentration of adenine-induced renal failure rat (0.1% in feed, 3 days); type: in vivo; details: feed or water, 72 h, adenine-induced renal failure Wistar male rat, test compound 0.1% of mass concentration in feed for 3 days, Fiske-Subbarow method, read-out: rate (%) of suppression of a rise in serum phosphorus concentration
From the text: Adenine was forcedly administered orally to each Wistar male rat (7-8 weeks old) to impair renal functions and thereby prepare a hyperphosphatemia model ([…], Nagano N, Burke SK, Fukushima N. Sevelamer hydrochloride prevents ectopic calcification and renal osteodystrophy in chronic renal failure rats. Kidney Int. 2003 Aug; 64 (2): 441-50). Each test compound was mixed at a ratio of 0.1% of mass concentration with feed. The animal was fed with a given amount of the feed for 3 days. A group given feed non-supplemented with a test compound was used as a reference pathological group, and an adenine-unadministered group given feed non-supplemented with a test compound was used as a normal group. 3 days after the start of administration of the test compound, blood was collected from the jugular vein, and serum was collected. Serum phosphorus concentrations were measured by the Fiske-Subbarow method. The rate of suppression of a rise in serum phosphorus concentration was determined according to the following expression: Rate (%) of suppression of a rise in serum phosphorus concentration = (1-[(Serum phosphorus concentration of the test compound-treated pathological group)-(Serum phosphorus concentration of the normal group)]/[(Serum phosphorus concentration of the reference pathological group)-(Serum phosphorus concentration of the normal group)]) × 100 [formula] As a result, each test compound was confirmed to have a suppressive effect on a rise in serum phosphorus concentration. […]

Molecule	Rate of uptake inhibition (%) (1 µM) [1]	inhibition in vivo at 0.1 % in feed [2]
C[C@]12CCCN1N(Cc1ccc(C#CCCCC(=O)O)c(F)c1F)C(=O)C(C(=O)Nc1ccc(C(F)(F)F)cc1-c1cc(C(F)(F)F)ncn1)=C2O [Example 129, 6-[4-[[(4aR)-4-Hydroxy-4a-methyl-2-oxo-3-[[4-(trifluoromethyl)-2-[6-(trifluoromethyl)pyrimidin-4-yl]phenyl]carbamoyl]-6,7-dihydro-5H-pyrrolo[1,2-b]pyridazin-1-yl]methyl]-2,3-difluorophenyl]hex-5-ynoic acid]	63%	17%
C[C@]12CCCN1N(Cc1ccc(C#CCN3CCOCC3)c(F)c1F)C(=O)C(C(=O)Nc1ccc(C(F)(F)F)cc1-c1ccc(C(F)(F)F)nc1)=C2O [Example 140, (4aR)-1-[[2,3-Difluoro-4-(3-morpholin-4-ylprop-1-ynyl)phenyl]methyl]-4-hydroxy-4a-methyl-2-oxo-N-[4-(trifluoromethyl)-2-[6-(trifluoromethyl)pyridin-3-yl]phenyl]-6,7-dihydro-5H-pyrrolo[1,2-b]pyridazine-3-carboxamide]	77%	39%
C[C@]12CCCN1N(Cc1ccc(OCCCOC[C@H](O)CO)c(F)c1F)C(=O)C(C(=O)Nc1ccc(C(F)(F)F)cc1-c1ccc(C(F)(F)F)nc1)=C2O [Example 147, (4aR)-1-[[4-[3-[(2R)-2,3-Dihydroxypropoxy]propoxy]-2,3-difluorophenyl]methyl]-4-hydroxy-4a-methyl-2-oxo-N-[4-(trifluoromethyl)-2-[6-(trifluoromethyl)pyridin-3-yl]phenyl]-6,7-dihydro-5H-pyrrolo[1,2-b]pyridazine-3-carboxamide]	57%	35%
C[C@]12CCCN1N(Cc1ccc(OCCCCOC[C@H](O)CO)c(F)c1F)C(=O)C(C(=O)Nc1ccc(C(F)(F)F)cc1-c1cc(C(F)(F)F)ncn1)=C2O [Example 152, (4aR)-1-[[4-[4-[(2R)-2,3-Dihydroxypropoxy]butoxy]-2,3-difluorophenyl]methyl]-4-hydroxy-4a-methyl-2-oxo-N-[4-(trifluoromethyl)-2-[6-(trifluoromethyl)pyrimidin-4-yl]phenyl]-6,7-dihydro-5H-pyrrolo[1,2-b]pyridazine-3-carboxamide]	54%	26%
C[C@]12CCCN1N(Cc1ccc(OCCCCCCOC[C@H](O)CO)c(F)c1F)C(=O)C(C(=O)Nc1cnc(C(F)(F)F)nc1-c1ccc(C(F)(F)F)nc1)=C2O [Example 156, (4aR)-1-[[4-[6-[(2R)-2,3-Dihydroxypropoxy]hexoxy]-2,3-difluorophenyl]methyl]-4-hydroxy-4a-methyl-2-oxo-N-[2-(trifluoromethyl)-4-[6-(trifluoromethyl)pyridin-3-yl]pyrimidin-5-yl]-6,7-dihydro-5H-pyrrolo[1,2-b]pyridazine-3-carboxamide]	59%	21%
COCCN(C)CCOc1c(-c2cccnc2)cc(CN2C(=O)C(C(=O)Nc3ccc(C(F)(F)F)cc3-c3cc(C(F)(F)F)ncn3)=C(O)C3(CCCC3)N2C)c(F)c1F [Example 440, 9-[[2,3-Difluoro-4-[2-[2-methoxyethyl(methyl)amino]ethoxy]-5-(3-pyridinyl)phenyl]methyl]-6-hydroxy-10-methyl-8-oxo-N-[4-(trifluoromethyl)-2-[6-(trifluoromethyl)pyrimidin-4-yl]phenyl]-9,10-diazaspiro[4.5]dec-6-ene-7-carboxamide]	28%	–
CN(C[C@H](O)[C@@H](O)[C@H](O)[C@H](O)CO)C(=O)COCCOCCOCCOCCOc1ccc(CN2C(=O)C(C(=O)Nc3ccc(C(F)(F)F)cc3-c3cc(C(F)(F)F)ncn3)=C(O)C3(CCCC3)N2C)c(F)c1F [Example 441, 7-[[2,3-Difluoro-4-[2-[2-[2-[2-[2-[methyl-[(2S,3R,4R,5R)-2,3,4,5,6-pentahydroxyhexyl]amino]-2-oxoethoxy]ethoxy]ethoxy]ethoxy]ethoxy]phenyl]methyl]-10-hydroxy-6-methyl-8-oxo-N-[4-(trifluoromethyl)-2-[6-(trifluoromethyl)pyrimidin-4-yl]phenyl]-6,7-diazaspiro[4.5]dec-9-ene-9-carboxamide]	22%	–
COCCN(C)CCN(C)c1ccc(CN2C(=O)C(C(=O)Nc3ccc(C(F)(F)F)cc3-c3cc(C(F)(F)F)ncn3)=C(O)C3(CCCC3)N2C)c(F)c1F [Example 442]	24%	–
CCN(CCN(C)CCOC)c1ccc(CN2C(=O)C(C(=O)Nc3ccc(C(F)(F)F)cc3-c3cc(C(F)(F)F)ncn3)=C(O)C3(CCCC3)N2C)c(F)c1F [Example 443]	28%	–
CCCN(CCN(C)CCOC)c1ccc(CN2C(=O)C(C(=O)Nc3ccc(C(F)(F)F)cc3-c3cc(C(F)(F)F)ncn3)=C(O)C3(CCCC3)N2C)c(F)c1F [Example 444]	24%	–
COCCN(C)CCN(c1ccc(CN2C(=O)C(C(=O)Nc3ccc(C(F)(F)F)cc3-c3cc(C(F)(F)F)ncn3)=C(O)C3(CCCC3)N2C)c(F)c1F)C(C)C [Example 445]	29%	–
CN1N(Cc2ccc(NCCCN3CCOCC3)c(F)c2F)C(=O)C(C(=O)Nc2ccc(C(F)(F)F)cc2-c2cc(C(F)(F)F)ncn2)=C(O)C12CCCC2 [Example 446]	31%	–
CN1N(Cc2ccc(NCCN3CCOCC3)c(F)c2F)C(=O)C(C(=O)Nc2ccc(C(F)(F)F)cc2-c2cc(C(F)(F)F)ncn2)=C(O)C12CCCC2 [Example 447]	50%	–
(4aR)-1-[(2,3-Difluorophenyl)methyl]-4-hydroxy-4a-methyl-N-[5-methyl-2-(trifluoromethyl)furan-3-yl]-2-oxo-6,7-dihydro-5H-pyrrolo[1,2-b]pyridazine-3-carboxamide [Example 7]	69%	–
(4aR)-1-[(2,3-Difluorophenyl)methyl]-4-hydroxy-N-[5-methyl-2-(trifluoromethyl)furan-3-yl]-2-oxo-4a-propyl-6,7-dihydro-5H-pyrrolo[1,2-b]pyridazine-3-carboxamide [Example 12]	27%	–
(4aR)-1-[(2,3-Difluorophenyl)methyl]-4a-ethyl-4-hydroxy- N-[5-methyl-2-(trifluoromethyl)furan-3-yl]-2-oxo-6,7-dihydro-5H-pyrrolo[1,2-b]pyridazine-3-carboxamide [Example 10]	37%	–
(4aR)-1-[(3-Fluorophenyl)methyl]-4-hydroxy-4a-methyl-N-[5-methyl-2-(trifluoromethyl)furan-3-yl]-2-oxo-6,7-dihydro-5H-pyrrolo[1,2-b]pyridazine-3-carboxamide [Example 6]	48%	–
(4aR)-1-[(3-Fluorophenyl)methyl]-4-hydroxy-N-[5-methyl-2-(trifluoromethyl)furan-3-yl]-2-oxo-4a-propyl-6,7-dihydro-5H-pyrrolo[1,2-b]pyridazine-3-carboxamide [Example 11]	22%	–
(4aR)-4a-Ethyl-1-[(3-fluorophenyl)methyl]-4-hydroxy-N-[5-methyl-2-(trifluoromethyl)furan-3-yl]-2-oxo-6,7-dihydro-5H-pyrrolo[1,2-b]pyridazine-3-carboxamide [Example 9]	63%	–
(4aR)-N-[2-(6-Cyano-5-methoxypyridin-1-yl)-4-(trifluoromethyl)phenyl]-1-[(2,3-difluorophenyl)methyl]-4-hydroxy-4a-methyl-2-oxo-6,7-dihydro-5H-pyrrolo[1,2-b] pyridazine-3-carboxamide [Example 114]	86%	–
(4aS)-1-[(2,3-Difluorophenyl)methyl]-6,6-difluoro-4-hydroxy-N-[5-methyl-2-(trifluoromethyl)furan-3-yl]-2-oxo-5,7-dihydro-4aH-pyrrolo[1,2-b]pyridazine-3-carboxamide [Example 5]	54%	–
(4aS)-1-[(3-Fluorophenyl)methyl]-4-hydroxy-4a-methyl-N-[5-methyl-2-(trifluoromethyl)furan-3-yl]-2-oxo-6,7-dihydro-5H-pyrrolo[1,2-b]pyridazine-3-carboxamide [Example 8]	37%	–
(4aS)-1-[(3-Fluorophenyl)methyl]-4-hydroxy-N-[5-methyl-2-(trifluoromethyl)furan-3-yl]-2-oxo-5,6,7,8-tetrahydro-4aH-pyrido[1,2-b]pyridazine-3-carboxamide [Example 16]	38%	–
(4aS)-1-[(5,6-Difluoro-1H-indol-7-yl)methyl]-4-hydroxy-N-[5-methyl-2-(trifluoromethyl)furan-3-yl]-2-oxo-5,6,7,8-tetrahydro-4aH-pyrido[1,2-b]pyridazine-3-carboxamide [Example 17]	33%	–
(4aS,5S,8R)-1-(3-Fluorobenzyl)-4-hydroxy-N-(5-methyl-2-(trifluoromethyl)furan-3-yl)-2-oxo-2,4a,5,6,7,8-hexahydro-1H-5,8-methanopyrido[1,2-b]pyridazine-3-carboxamide [Example 20]	21%	–
